In patent publication US20170043031A1, “IGF-1R ANTIBODY-DRUG-CONJUGATE AND ITS USE FOR THE TREATMENT OF CANCER” (PIERRE FABRE MEDICAMENT, priority 2014, published 2017):

Tested on: lysosome functions
Test: Inhibition of Abs degradation using lysosome inhibitor
Assay type: cell-based
Details: 10 μg/ml of Ab, 2 h at 37° C.
Experimental: In order to confirm that antibodies reached the lysosome were they are degraded, cells were treated or not with bafilomycine A1, a potent inhibitor of lysosome functions. Cells were then incubated with 10 μg/ml of Ab to be tested at 4° C., washed and incubated for 2 h at 37° C. The internalized Ab was detected after cell permeabilisation using a secondary anti-mouse IgG-Alexa 488 Ab.

## CO/C1=C\C(C)=C\[C@@H](C)[C@@H](O)[C@@H](C)C/C(C)=C/C=C/[C@H](OC)[C@@H]([C@@H](C)[C@@H](O)[C@H](C)[C@@]2(O)C[C@@H](O)[C@H](C)[C@@H](C(C)C)O2)OC1=O [bafilomycine A1]
  degradation of intracellular Ab: prevented the degradation of intracellular Ab
